# Test results reported in publication PMC5218480 (PLoS ONE, 2017).
# Test system: MV-4-11 cells
# Experiment: Gene expression microarray analysis (Affymetrix PrimeView) and GSEA
# Type: cell-based, human
# Parameters: RFU PODN (11730768_x_at) / Fold change /veh PODN (11730768_x_at) / RFU LINC00158 (11744669_a_at) / Fold change /veh LINC00158 (11744669_a_at) / RFU DUSP10 (11751237_a_at) / Fold change /veh DUSP10 (11751237_a_at) / RFU ID3 (11757404_x_at) / Fold change /veh ID3 (11757404_x_at) / RFU PLEKHG5 (11737974_s_at) / Fold change /veh PLEKHG5 (11737974_s_at) / RFU LRRC4B (11730491_at) / Fold change /veh LRRC4B (11730491_at) / RFU GIMAP4 (11747438_a_at) / Fold change /veh GIMAP4 (11747438_a_at) / RFU KRT8 (11758183_x_at) / Fold change /veh KRT8 (11758183_x_at) / RFU CNN1 (11734310_a_at) / Fold change /veh CNN1 (11734310_a_at) / RFU VPS37D (11726825_at) / Fold change /veh VPS37D (11726825_at) / RFU C10orf10 (11716522_x_at) / Fold change /veh C10orf10 (11716522_x_at) / RFU KIR2DL2 /// KIR2DL4 /// KIR2DL5A /// KIR2DL5B /// KIR2DS1 /// KIR2DS2 /// KIR2DS3 /// KIR2DS4 /// KIR3DL3 /// KIR3DL3 /// KIR3DS1 (11738374_at) / Fold change /veh KIR2DL2 /// KIR2DL4 /// KIR2DL5A /// KIR2DL5B /// KIR2DS1 /// KIR2DS2 /// KIR2DS3 /// KIR2DS4 /// KIR3DL3 /// KIR3DL3 /// KIR3DS1 (11738374_at) / RFU C1QL1 (11718748_at) / Fold change /veh C1QL1 (11718748_at) / RFU TMPRSS4 (11747572_a_at) / Fold change /veh TMPRSS4 (11747572_a_at) / RFU HAMP (11756126_x_at) / Fold change /veh HAMP (11756126_x_at) / RFU RNFT2 (11725882_a_at) / Fold change /veh RNFT2 (11725882_a_at) / RFU NR4A2 (11747474_a_at) / Fold change /veh NR4A2 (11747474_a_at) / RFU ABCC12 (11746883_a_at) / Fold change /veh ABCC12 (11746883_a_at) / RFU TMEM136 (11760407_x_at) / Fold change /veh TMEM136 (11760407_x_at) / RFU CLDN22 /// WWC2 (11732394_at) / Fold change /veh CLDN22 /// WWC2 (11732394_at) / RFU HLA-DPB1 (11760878_x_at) / Fold change /veh HLA-DPB1 (11760878_x_at) / RFU SPINT1 (11716480_a_at) / Fold change /veh SPINT1 (11716480_a_at) / RFU GAP43 (11754022_s_at) / Fold change /veh GAP43 (11754022_s_at) / RFU A4GNT (11735810_at) / Fold change /veh A4GNT (11735810_at) / RFU PRB3 (11715151_x_at) / Fold change /veh PRB3 (11715151_x_at) / RFU TUBB4B (11761932_at) / Fold change /veh TUBB4B (11761932_at) / RFU CAPN14 (11732068_a_at) / Fold change /veh CAPN14 (11732068_a_at) / RFU TMCC2 (11721928_a_at) / Fold change /veh TMCC2 (11721928_a_at) / RFU IRGQ (11745062_a_at) / Fold change /veh IRGQ (11745062_a_at) / RFU FAM174B (11720279_a_at) / Fold change /veh FAM174B (11720279_a_at) / RFU TMPRSS4 (11748680_a_at) / Fold change /veh TMPRSS4 (11748680_a_at) / RFU FAM212B (11763350_a_at) / Fold change /veh FAM212B (11763350_a_at) / RFU PLEKHG5 (11743358_a_at) / Fold change /veh PLEKHG5 (11743358_a_at) / RFU ZSCAN30 (11745921_a_at) / Fold change /veh ZSCAN30 (11745921_a_at) / RFU CMKLR1 (11741424_a_at) / Fold change /veh CMKLR1 (11741424_a_at) / RFU LOC101060620 /// MAPK8IP1 (11723275_at) / Fold change /veh LOC101060620 /// MAPK8IP1 (11723275_at) / RFU SPTSSB (11747773_x_at) / Fold change /veh SPTSSB (11747773_x_at) / RFU PRSS12 (11739890_at) / Fold change /veh PRSS12 (11739890_at) / RFU BIN1 (11741810_x_at) / Fold change /veh BIN1 (11741810_x_at) / RFU WNT11 (11732464_a_at) / Fold change /veh WNT11 (11732464_a_at) / RFU C10orf10 (11716521_a_at) / Fold change /veh C10orf10 (11716521_a_at) / RFU C5orf56 (11738089_at) / Fold change /veh C5orf56 (11738089_at) / RFU CYB561 (11721691_x_at) / Fold change /veh CYB561 (11721691_x_at) / RFU ANKRD19P (11752326_a_at) / Fold change /veh ANKRD19P (11752326_a_at) / RFU OR2T12 /// OR2T33 /// OR2T8 (11738714_s_at) / Fold change /veh OR2T12 /// OR2T33 /// OR2T8 (11738714_s_at) / RFU VCAN (11748164_a_at) / Fold change /veh VCAN (11748164_a_at) / RFU JSRP1 (11732532_at) / Fold change /veh JSRP1 (11732532_at) / RFU KRTAP10-11 (11738290_x_at) / Fold change /veh KRTAP10-11 (11738290_x_at) / RFU MYO3A (11730013_a_at) / Fold change /veh MYO3A (11730013_a_at) / RFU EBF3 (11725865_a_at) / Fold change /veh EBF3 (11725865_a_at) / RFU CAMK2N1 (11719241_x_at) / Fold change /veh CAMK2N1 (11719241_x_at) / RFU C5orf56 (11738088_a_at) / Fold change /veh C5orf56 (11738088_a_at) / RFU OLFML3 (11715873_a_at) / Fold change /veh OLFML3 (11715873_a_at) / RFU LOC100653217 /// NTM (11731650_a_at) / Fold change /veh LOC100653217 /// NTM (11731650_a_at) / RFU MAPK11 (11762145_a_at) / Fold change /veh MAPK11 (11762145_a_at) / RFU FIZ1 (11724087_x_at) / Fold change /veh FIZ1 (11724087_x_at) / RFU OASL (11726364_x_at) / Fold change /veh OASL (11726364_x_at) / RFU SOX15 (11748057_x_at) / Fold change /veh SOX15 (11748057_x_at) / RFU CD79A (11719716_a_at) / Fold change /veh CD79A (11719716_a_at) / RFU HIST1H1D (11736915_at) / Fold change /veh HIST1H1D (11736915_at) / RFU CASKIN2 (11723855_a_at) / Fold change /veh CASKIN2 (11723855_a_at) / RFU LOC730098 (11760151_x_at) / Fold change /veh LOC730098 (11760151_x_at) / RFU OR4N2 (11742367_at) / Fold change /veh OR4N2 (11742367_at) / RFU PRRT2 (11749266_a_at) / Fold change /veh PRRT2 (11749266_a_at) / RFU SNX32 (11753110_a_at) / Fold change /veh SNX32 (11753110_a_at) / RFU CDHR5 (11726645_a_at) / Fold change /veh CDHR5 (11726645_a_at) / RFU RCAN1 (11760418_a_at) / Fold change /veh RCAN1 (11760418_a_at) / RFU FAM167A (11723789_a_at) / Fold change /veh FAM167A (11723789_a_at) / RFU FAM26E (11764081_at) / Fold change /veh FAM26E (11764081_at) / RFU ISYNA1 (11749810_s_at) / Fold change /veh ISYNA1 (11749810_s_at) / RFU ACY1 (11761880_at) / Fold change /veh ACY1 (11761880_at) / RFU 11764098_at / Fold change /veh 11764098_at / RFU SAMD14 (11745864_x_at) / Fold change /veh SAMD14 (11745864_x_at) / RFU NPB (11741838_a_at) / Fold change /veh NPB (11741838_a_at) / RFU TMPRSS6 (11731388_a_at) / Fold change /veh TMPRSS6 (11731388_a_at) / RFU KRTAP10-2 (11738614_at) / Fold change /veh KRTAP10-2 (11738614_at) / RFU ARHGAP8 /// PRR5-ARHGAP8 (11727945_x_at) / Fold change /veh ARHGAP8 /// PRR5-ARHGAP8 (11727945_x_at) / RFU KRTAP5-7 /// NADSYN1 (11734609_at) / Fold change /veh KRTAP5-7 /// NADSYN1 (11734609_at) / RFU RASL12 (11751679_a_at) / Fold change /veh RASL12 (11751679_a_at) / RFU CDKN2B (11736163_a_at) / Fold change /veh CDKN2B (11736163_a_at) / RFU PRF1 (11729649_at) / Fold change /veh PRF1 (11729649_at) / RFU, ZNF638 /// ZNF638-IT1 / Fold change vs veh, ZNF638 /// ZNF638-IT1 / RFU, PANK3 / Fold change vs veh, PANK3 / RFU, SH3YL1 / Fold change vs veh, SH3YL1 / RFU, ZEB2 / Fold change vs veh, ZEB2 / RFU, NRIP1 / Fold change vs veh, NRIP1 / RFU, PTTG1IP / Fold change vs veh, PTTG1IP / RFU, CAPN2 / Fold change vs veh, CAPN2 / RFU, MED14 / Fold change vs veh, MED14 / RFU, SNORA58 / Fold change vs veh, SNORA58 / RFU, C1orf63 / Fold change vs veh, C1orf63 / RFU, LRRFIP1 / Fold change vs veh, LRRFIP1 / RFU, NDUFAF7 / Fold change vs veh, NDUFAF7 / RFU, SLC12A2 / Fold change vs veh, SLC12A2 / RFU, IBTK / Fold change vs veh, IBTK / RFU, ESF1 / Fold change vs veh, ESF1 / Fold change vs veh, TMEM50B / RFU, TAOK1 / Fold change vs veh, TAOK1 / RFU, ACBD3 / Fold change vs veh, ACBD3 / RFU, TMA16 / Fold change vs veh, TMA16 / RFU, RWDD3 / Fold change vs veh, RWDD3 / RFU, BCAT1 / Fold change vs veh, BCAT1 / RFU, EDEM3 / Fold change vs veh, EDEM3 / RFU, TMEM33 / Fold change vs veh, TMEM33 / RFU, WDR75 / Fold change vs veh, WDR75 / RFU, AHCTF1 / Fold change vs veh, AHCTF1 / RFU, TFRC / Fold change vs veh, TFRC / RFU, ZDHHC17 / Fold change vs veh, ZDHHC17 / RFU, NOM1 / Fold change vs veh, NOM1 / RFU, ARL8B / Fold change vs veh, ARL8B / RFU, ZBTB11 / Fold change vs veh, ZBTB11 / RFU, TAMM41 / Fold change vs veh, TAMM41 / RFU, KIAA1704 /// LOC100996395 / Fold change vs veh, KIAA1704 /// LOC100996395 / RFU, ING1 / Fold change vs veh, ING1 / RFU, TRMT61B / Fold change vs veh, TRMT61B / RFU, FUBP3 / Fold change vs veh, FUBP3 / RFU, TP53 / Fold change vs veh, TP53 / RFU, TNKS2 / Fold change vs veh, TNKS2 / RFU, ZFP14 / Fold change vs veh, ZFP14 / RFU, ACTR2 / Fold change vs veh, ACTR2 / RFU, PPP3R1 / Fold change vs veh, PPP3R1 / RFU, PIK3R1 / Fold change vs veh, PIK3R1 / RFU, HNRNPA1 / Fold change vs veh, HNRNPA1 / RFU, RNF170 / Fold change vs veh, RNF170 / RFU, ZNF28 / Fold change vs veh, ZNF28 / RFU, RNGTT / Fold change vs veh, RNGTT / RFU, OGT / Fold change vs veh, OGT / RFU, BRD1 / Fold change vs veh, BRD1 / RFU, MARS / Fold change vs veh, MARS / RFU, ZNF655 / Fold change vs veh, ZNF655 / RFU, FAHD1 / Fold change vs veh, FAHD1 / RFU, BDP1 / Fold change vs veh, BDP1 / RFU, LRRCC1 / Fold change vs veh, LRRCC1 / RFU, ARID1A / Fold change vs veh, ARID1A / RFU, ZNF146 / Fold change vs veh, ZNF146 / RFU, ZNF330 / Fold change vs veh, ZNF330 / RFU, GPN3 / Fold change vs veh, GPN3 / RFU, C9orf123 / Fold change vs veh, C9orf123 / RFU, N4BP2L2 / Fold change vs veh, N4BP2L2 / RFU, ARFIP1 / Fold change vs veh, ARFIP1 / RFU, FAM179B / Fold change vs veh, FAM179B / RFU, BCL10 / Fold change vs veh, BCL10 / RFU, UHRF1BP1L / Fold change vs veh, UHRF1BP1L / RFU, BET1 / Fold change vs veh, BET1 / RFU, CNOT2 / Fold change vs veh, CNOT2 / RFU, ZNF268 / Fold change vs veh, ZNF268 / Fold change vs veh, ZNF507 / RFU, DGCR2 / Fold change vs veh, DGCR2 / RFU, WDSUB1 / Fold change vs veh, WDSUB1 / Fold change vs veh, HSP90B1 /// MIR3652 / RFU, ADSS / Fold change vs veh, ADSS / RFU, GK / Fold change vs veh, GK / RFU, ZNF148 / Fold change vs veh, ZNF148 / RFU, TAF9 / Fold change vs veh, TAF9 / RFU, SLC1A5 / Fold change vs veh, SLC1A5 / RFU, SLMO2 / Fold change vs veh, SLMO2 / RFU, ABCC4 / Fold change vs veh, ABCC4 / RFU, LOC101060439 /// RAP1B / Fold change vs veh, LOC101060439 /// RAP1B / RFU, RFX7 / Fold change vs veh, RFX7 / RFU, GTPBP10 / Fold change vs veh, GTPBP10 / RFU, CNEP1R1 / Fold change vs veh, CNEP1R1 / RFU, BIVM-ERCC5 /// ERCC5 / Fold change vs veh, BIVM-ERCC5 /// ERCC5 / RFU, ILF3 / Fold change vs veh, ILF3 / RFU 11762660_at / Fold change /veh 11762660_at / RFU VCAN (11757783_s_at) / Fold change /veh VCAN (11757783_s_at) / RFU DDX43 (11728927_at) / Fold change /veh DDX43 (11728927_at) / RFU KRT8 (11758188_x_at) / Fold change /veh KRT8 (11758188_x_at) / RFU NKD1 (11759106_at) / Fold change /veh NKD1 (11759106_at) / RFU SRD5A1 (11742802_a_at) / Fold change /veh SRD5A1 (11742802_a_at) / RFU TPSAB1 /// TPSB2 (11721975_s_at) / Fold change /veh TPSAB1 /// TPSB2 (11721975_s_at) / RFU GSTM3 (11746129_a_at) / Fold change /veh GSTM3 (11746129_a_at) / RFU IL23R (11737362_x_at) / Fold change /veh IL23R (11737362_x_at) / RFU TMEM51 (11727254_a_at) / Fold change /veh TMEM51 (11727254_a_at) / RFU PIWIL2 (11732686_x_at) / Fold change /veh PIWIL2 (11732686_x_at) / RFU ORM1 (11744905_x_at) / Fold change /veh ORM1 (11744905_x_at) / RFU CCDC152 (11743942_at) / Fold change /veh CCDC152 (11743942_at) / RFU ECM1 (11717891_a_at) / Fold change /veh ECM1 (11717891_a_at) / RFU IL23R (11748794_a_at) / Fold change /veh IL23R (11748794_a_at) / RFU TNFAIP8L3 (11732012_x_at) / Fold change /veh TNFAIP8L3 (11732012_x_at) / RFU MBOAT4 (11741988_at) / Fold change /veh MBOAT4 (11741988_at) / RFU 11764193_at / Fold change /veh 11764193_at / RFU TMEM53 (11763286_at) / Fold change /veh TMEM53 (11763286_at) / RFU MAGEB2 (11727129_at) / Fold change /veh MAGEB2 (11727129_at) / RFU TMEM200A (11744735_a_at) / Fold change /veh TMEM200A (11744735_a_at) / RFU CCDC152 (11751479_a_at) / Fold change /veh CCDC152 (11751479_a_at) / RFU FAM211A (11726209_a_at) / Fold change /veh FAM211A (11726209_a_at) / RFU RGS16 (11746705_a_at) / Fold change /veh RGS16 (11746705_a_at) / RFU VCAN (11755009_s_at) / Fold change /veh VCAN (11755009_s_at) / RFU RHOB (11743442_s_at) / Fold change /veh RHOB (11743442_s_at) / RFU RGS16 (11720943_a_at) / Fold change /veh RGS16 (11720943_a_at) / RFU RGS16 (11720944_at) / Fold change /veh RGS16 (11720944_at) / RFU, VPS4B / Fold change vs veh, VPS4B / RFU, CREB1 / Fold change vs veh, CREB1 / RFU, DNAJC13 / Fold change vs veh, DNAJC13 / RFU, GNAQ / Fold change vs veh, GNAQ / RFU, CDK5R1 / Fold change vs veh, CDK5R1 / RFU, ZRANB3 / Fold change vs veh, ZRANB3 / RFU, CUL4A / Fold change vs veh, CUL4A / RFU, CCNY / Fold change vs veh, CCNY / RFU, UFL1 / Fold change vs veh, UFL1 / RFU, COG3 / Fold change vs veh, COG3 / RFU, DIAPH2 / Fold change vs veh, DIAPH2 / RFU, SKA2 / Fold change vs veh, SKA2 / RFU, AFF3 / Fold change vs veh, AFF3 / RFU, LMF1 / Fold change vs veh, LMF1 / RFU, IPO11 / Fold change vs veh, IPO11 / RFU, DFFB / Fold change vs veh, DFFB / RFU, FOXP1 / Fold change vs veh, FOXP1 / RFU, CARD8 / Fold change vs veh, CARD8 / RFU, STRN3 / Fold change vs veh, STRN3 / RFU, ADK / Fold change vs veh, ADK / RFU, RASSF2 / Fold change vs veh, RASSF2 / RFU, WIPF1 / Fold change vs veh, WIPF1 / RFU, LARP1B / Fold change vs veh, LARP1B / RFU, RASA1 / Fold change vs veh, RASA1 / RFU, RB1 / Fold change vs veh, RB1 / RFU, PPFIA1 / Fold change vs veh, PPFIA1 / RFU, MAT2A / Fold change vs veh, MAT2A / RFU, CCT5 / Fold change vs veh, CCT5 / RFU, WDR92 / Fold change vs veh, WDR92 / RFU, CUX1 / Fold change vs veh, CUX1 / RFU, TTC7A / Fold change vs veh, TTC7A / RFU, TMEM135 / Fold change vs veh, TMEM135 / RFU, DEPTOR / Fold change vs veh, DEPTOR / RFU, CPM / Fold change vs veh, CPM / RFU, DNAJB6 / Fold change vs veh, DNAJB6 / RFU, CACNA2D3 / Fold change vs veh, CACNA2D3 / RFU, DTX4 / Fold change vs veh, DTX4 / RFU, TFCP2 / Fold change vs veh, TFCP2 / RFU, GMCL1 /// GMCL1P1 / Fold change vs veh, GMCL1 /// GMCL1P1 / RFU, AEBP2 / Fold change vs veh, AEBP2 / RFU, SNHG1 /// SNORD22 /// SNORD25 /// SNORD26 /// SNORD27 /// SNORD28 /// SNORD29 /// SNORD31 / Fold change vs veh, SNHG1 /// SNORD22 /// SNORD25 /// SNORD26 /// SNORD27 /// SNORD28 /// SNORD29 /// SNORD31 / Fold change (Aza/veh), C12orf56 (ProbeSet 11735607_a_at) / Fold change (ACY-1035/veh), C12orf56 (ProbeSet 11735607_a_at) / Fold change (Aza/veh), FGFR1OP (ProbeSet 11751329_s_at) / Fold change (ACY-1035/veh), FGFR1OP (ProbeSet 11751329_s_at) / Fold change (Aza/veh), VPS36 (ProbeSet 11739960_a_at) / Fold change (ACY-1035/veh), VPS36 (ProbeSet 11739960_a_at) / RFU SYPL1 (11715823_x_at) / Fold change /veh SYPL1 (11715823_x_at) / RFU IGFBP7 (11715501_s_at) / Fold change /veh IGFBP7 (11715501_s_at) / RFU REEP3 (11722064_at) / Fold change /veh REEP3 (11722064_at) / RFU IGLL1 (11728026_x_at) / Fold change /veh IGLL1 (11728026_x_at): dose or concentration left out as unconfirmed
# Conditions: MV-4-11 cells, 48 hours
structure (smiles),measurement,value
Nc1ccc(-c2cccs2)cc1NC(=O)c1ccc2c(c1)cc(C1CC1)n2CCN1CCOCC1 [ACY-1035],Fold change /veh TMEM136 (11760407_x_at),1.12
